Results published in patent US20230263897A1, “CONJUGATE OF GALNAC AND SAPONIN, […] COMPOSITION COMPRISING SAID CONJUGATE AND A GALNAC-OLIGO[…]” (SAPREME TECHNOLOGIES B.V., priority 2020, published 2023).
Like-named read-outs stand apart in the source and are kept apart here. [BNANC] = BNA^NC bridged nucleic acid sugar; d = 2'-deoxy (DNA)

Tests used:
ApoB [1] = experiment: ApoB gene silencing (qPCR) in HepG2 cells; type: cell-based, human
Description: (§1) ApoB gene silencing in HepG2 (ASGPR1*) cells or Huh7 (ASPGR1^+/−) was determined. […] Thus, a conjugate comprising a labile bond between any two molecules forming the conjugate or comprised by the conjugate, will be cleaved at a position in the labile linker, therewith dissociating the two linked or bound molecules. An example is the cleavage of a hydrazone bond under acidic conditions as apparent in the endosome and lysosome of mammalian cells such as human cells.
(§2) ApoB gene silencing HepG2 (ASGPR1*) cells and Huh7 (ASPGR1^+/−) cells was determined.
(§3) RNA from cells was isolated and analysed according to standard protocols (Biorad). qPCR primers that were used are indicated in Table A2.

ApoB [2] = experiment: ApoB gene silencing (qPCR) in Huh7 cells; type: cell-based, human; conditions: for IC50: + 4000 nM trivalent-GalNAc-L-SO1861
Description: as §1, §2, §3

[3] = system: primary human hepatocytes; experiment: Cell viability assay (CTG) on primary human hepatocytes; conditions: for IC50 / effect on cell viability: primary human hepatocytes
Description: The ‘trivalent-GalNAc’ as depicted in FIGS. 1 and 8 is a typical (GalNAc)3Tris conjugate suitable for coupling to an effector molecule or to saponin. […] Primary hepatocytes express receptor at high density—allow for targeting.
Primary hepatocytes which highly express ASGPR1 (ASGPR1*) and hepatocyte cells of cell-line Huh7 (ASGPR1^+/−) were treated with a concentration range of trivalent-GalNAc-SO1861 (TrivalentGalNAc-SPT001), either or not in the presence of 10 μM CD71-saporin (monoclonal antibody OKT-9 targeting CD71 conjugated to the protein toxin saporin; FIG. 30D).
After treatment the cells were incubated for 72 hr at 37° C. before the cell viability was determined by a CTG-assay, performed according to the manufacturer's instruction (CellTiter-Glo® 2.0 Cell Viability Assay, Promega). Briefly, the cell plate was first equilibarated to RT for 30 minutes. Next, to each well containing 120 μL treatment media 120 μL CTG solution was added. The plate briefly mixed (10 sec, 600 rpm) and incubated for approximately 10 minutes in the dark at RT. Subsequently, the luminescence signal was measured on a Spectramax ID5 plate reader (Molecular Devices). For quantification, the background signal of ‘medium only’ wells was subtracted from all other wells before the cell viability percentage of treated/untreated cells was calculated by dividing the background corrected signal of treated wells over the background corrected signal of the untreated wells (×100).
Cryopreserved primary human hepatocytes (Cytes Biotechnologies S.L., Spain) were thawed in hepatocyte thawing media (Cytes Biotechnologies S.L., Spain). Cells were re-suspended in hepatocyte plating media (Cytes Biotechnologies S.L., Spain). Cells were seeded onto collagen-I coated plates at a density of 215.600 cells/well or 66.600 cells/well for the 48 or 96-well plates (Greiner BioOne). Cells were pre-cultured for 4-6 hrs at 37° C. allowing for cell attachment to cell culture plates before the start of treatment. Plating medium was replaced by 315 μl or 108 μl maintenance media (Cytes Biotechnologies S.L., Spain), after which conjugates were added from a 10× concentrated stock solution in PBS. Plates were incubated for 72 hr at 37° C. being harvested for gene expression and cell viability analysis.

HSP27 [4] = experiment: HSP27 gene silencing (qPCR) in Huh7 cells; type: cell-based, human; conditions: + 4000 nM SO1861-EMCH
Description: (§4) HSP27 gene silencing in HepG2 and Huh7 cells was determined.
as §3

HSP27 [5] = experiment: HSP27 gene silencing (qPCR) in HepG2 cells; type: cell-based, human; conditions: + 4000 nM SO1861-EMCH
Description: as §4, §3

ApoB protein = ApoB protein expression by Huh7 cells; type: cell-based, human
ApoB RNA = ApoB RNA expression analysis on primary human hepatocytes; type: cell-based
Description: RNA from cells was isolated using TRI Reagent® Solution (Thermo Scientific) according to the manufacturer's instruction. Conversion into cDNA was performed using iScript™ cDNA Synthesis Kit (BioRad) using standard protocols. ApoB expression levels and levels of specific hepatocyte housekeeping genes were determined using quantitative real-time PCR assays (qRT-PCR) using iTaq™ Universal SYBR® Green Supermix (BioRad) and the Light Cycler 480 (Roche Diagnostics, Rotkreuz, Switzerland) with specific DNA primers, listed in Table A4. Analysis was done by the ΔCt method to determine ApoB expression relative to 2 hepatocyte-specific housekeeping control mRNAs. Each analysis reaction was performed in triplicate.

[6] = + 4000 nM trivalent-GalNAc-L-SO1861

In the case of “trivalent-GalNAc-S-ApoBBNA: ApoBBNA (SEQ ID NO: 2) conjugated to trivalent-GalNAc, stable conjugation, FIG. 7 (antisense GCCTCAGTCTGCTTCGCACC; sugars from the 5' end [BNANC]5 d10 [BNANC]5, all phosphorothioate, methylation of C not given here; further chemistry not fully specified)”, the IC50 (ApoB [1]; + 4000 nM SO1861-EMCH) is reported as 10 nM, the IC50 (ApoB [1]; [6]) is reported as 50 nM and the IC50 (ApoB [2]) is reported as 700 nM.
CC(=O)OC1C(C)OC(OC2C(C)OC(OC(=O)[C@]34CCC(C)(C)CC3C3=CCC5[C@@]6(C)CC[C@H](OC7OC(C(=O)O)C(O)C(OC8OCC(O)C(O)C8O)C7OC7OC(CO)C(O)C(O)C7O)[C@@](C)(/C=N/NC(=O)CCCCCN7C(=O)C=CC7=O)C6CC[C@@]5(C)[C@]3(C)C[C@H]4O)C(OC3OC(C)C(OC4OCC(O)C(OC5OC(CO)C(O)C(O)C5O)C4O)C(O)C3O)C2O)C(O)C1OC1OCC(O)C(O)C1O (stereo partly shown) [SO1861-EMCH] was tested, and the “factor of potency increase when cell viability of liver cells is considered” value ([3]; primary hepatocytes, + 10 μM CD71-saporin) was ~10 factor.
“trivalent-GalNAc-L-HSP27BNA: HSP27BNA (SEQ ID NO: 1) conjugated to trivalent-GalNAc, labile conjugation, FIG. 6 (antisense GGCACAGCCAGTGGCG; sugars from the 5' end [BNANC]3 d10 [BNANC]3, all phosphorothioate, methylation of C not given here; further chemistry not fully specified)” was tested, and the IC50 (HSP27 [4]) was 3 nM and the IC50 (HSP27 [5]) was 0.1 nM.
In the case of CC(=O)OC1C(C)OC(OC2C(C)OC(OC(=O)[C@]34CCC(C)(C)CC3C3=CCC5[C@@]6(C)CC[C@H](OC7OC(C(=O)O)C(O)C(OC8OCC(O)C(O)C8O)C7OC7OC(CO)C(O)C(O)C7O)[C@@](C)(C=O)C6CC[C@@]5(C)[C@]3(C)C[C@H]4O)C(OC3OC(C)C(OC4OCC(O)C(OC5OC(CO)C(O)C(O)C5O)C4O)C(O)C3O)C2O)C(O)C1OC1OCC(O)C(O)C1O (stereo partly shown) [SO1861, reference compound], the IC50 ([3]; read-out: SO1861 IC50 for CD71-saporin mediated cell killing, + 10 μM CD71-saporin (non-effective concentration)) is reported as 200 nM.
In the case of “TrivalentGalNAc-ApoBBNA: conjugate of trivalent GalNAc and the ApoB antisense BNA oligonucleotide ApoBBNA (SEQ ID NO: 2); L or S linker not stated (antisense GCCTCAGTCTGCTTCGCACC; sugars from the 5' end [BNANC]5 d10 [BNANC]5, all phosphorothioate, methylation of C not given here; trivalent GalNAc conjugated via linker, attachment via 5'-thiol C6 linker implied)”, the “lowering of ApoB protein expression” value (ApoB protein; + 300 nM TrivalentGalNAc-SPT001, FIG. 32B) is reported as “Neither TrivalentGalNAc-ApoBBNA, nor the combination of TrivalentGalNAc-ApoBBNA and TrivalentGalNAc-SPT001 induce lowering of the ApoB protein expression”, the “lowering of ApoB protein expression” value (ApoB protein; alone, FIG. 32B) is reported as “Neither TrivalentGalNAc-ApoBBNA, nor the combination of TrivalentGalNAc-ApoBBNA and TrivalentGalNAc-SPT001 induce lowering of the ApoB protein expression” and the “lowering of ApoB mRNA expression” value (ApoB [2]; + 300 nM TrivalentGalNAc-SPT001, FIG. 31B) is reported as “Neither TrivalentGalNAc-ApoBBNA, nor the combination of TrivalentGalNAc-ApoBBNA and TrivalentGalNAc-SPT001 induce lowering of the ApoB mRNA expression”. The “lowering of ApoB mRNA expression” value (ApoB [2]; alone, FIG. 31B) was “Neither TrivalentGalNAc-ApoBBNA, nor the combination of TrivalentGalNAc-ApoBBNA and TrivalentGalNAc-SPT001 induce lowering of the ApoB mRNA expression”.
In the case of “trivalent-GalNAc-S-HSP27BNA: HSP27BNA (SEQ ID NO: 1) conjugated to trivalent-GalNAc, stable conjugation, FIG. 7 (GGCACAGCCAGTGGCG; sugars from the 5' end [BNANC]3 d10 [BNANC]3, all phosphorothioate, methylation of C not given here; further chemistry not fully specified)”, the IC50 (HSP27 [4]) is reported as 3 nM and the IC50 (HSP27 [5]) is reported as 0.1 nM.
For “trivalent-GalNAc-L-ApoBBNA: ApoBBNA (SEQ ID NO: 2) conjugated to trivalent-GalNAc, labile conjugation, FIG. 6 (antisense GCCTCAGTCTGCTTCGCACC; BNA oligo, pattern not given here, trivalent GalNAc via labile linker, position not given here)”, the IC50 (ApoB [1]; + 4000 nM SO1861-EMCH) was 10 nM, the IC50 (ApoB [1]; [6]) was 50 nM and the IC50 (ApoB RNA; + 250 nM (GalNAc)3-SO1861) was 15 nM. The IC50 (ApoB RNA; + 2000 nM SO1861-EMCH) was 8 nM, the IC50 (ApoB RNA; alone) was > 1000 nM and the “effect on cell viability” value ([3]; + 250 nM (GalNAc)3-SO1861, FIG. 24 B) was “without affecting cell viability significantly”. For the same molecule, the “effect on cell viability” value ([3]; alone, FIG. 24 B) was “no effects on cell viability were observed”, the IC50 ([3]; read-out: IC50 decreased cell viability, + 2000 nM SO1861-EMCH, FIG. 24 B) was 600 nM and the IC50 (ApoB [2]) was 700 nM.
